For experiment [1], the species on record is Rattus norvegicus. Briefly: […] activity in rat with several spinal cord injury assessed as increase in locomotory function. Type of experiment: functional, organism-based.
The species named for experiment [2] is Rattus norvegicus. Put plainly: […] activity in rat with several spinal cord injury assessed as increase in voiding function. Type of experiment: functional, organism-based.
The test system of experiment [3] is Rattus norvegicus. Put plainly: […] activity in rat with several spinal cord injury assessed as increase in locomotory function at 20 mg/kg/day for 7 days. Type of experiment: functional, organism-based.
For the next experiment, the system named is Lymphocyte. Put plainly: Immunosuppressive activity against autoimmune lymphocytes assessed as inhibition of cell expansion. It is filed as functional, cell-based.
The test system of experiment [4] is Rattus norvegicus. Briefly: […] activity in rat with several spinal cord injury assessed as increase in voiding function at 20 mg/kg/day for 7 days. Type of experiment: functional, organism-based.

SMILES strings stand for the structures. Activity calls are given as the source filed them. The rule behind the calls is not given here.

`Cc1cc(NC(=O)/C(C#N)=C(\O)C2CC2)ccc1C(F)(F)F`: the outcome in the experiment filed under Rattus norvegicus [1] and in the experiment listed under Rattus norvegicus [2] was Active.

Turning to `C/C(O)=C(\C#N)C(=O)Nc1ccc(C(F)(F)F)cc1`, the outcome in the experiment listed under Rattus norvegicus [1] and in the experiment filed under Rattus norvegicus [2] was Active.

In the case of `Cc1oncc1C(=O)Nc1ccc(C(F)(F)F)cc1`, the outcome in the experiment with Rattus norvegicus [3] and with Rattus norvegicus [4] was Active. In addition, the inhibition result in the experiment on Lymphocyte is “Active”.
